Reference: US7622472B2, “Combination of Src kinase inhibitors and chemotherapeutic agents for the treatment of proliferative diseases” (priority 2003, dated 2009)

Experiments:
[1] = system: PC3 human prostate carcinoma xenografts; test: In vivo antitumor testing, PC3 human prostate carcinoma xenografts in nude mice; conditions: single agent compound 1, 10 mpk, orally, twice-a-day, 5-day-on, 2-day-off, 14 days
Excerpt: Tumors were propagated as subcutaneous transplants using tumor fragments obtained from donor mice.
For treatment of early-stage tumors, the animals were again pooled before distribution to the various treatment and control groups. For treatment of animals with advanced-stage disease, tumors were allowed to grow to the pre-determined size window (tumors outside the range were excluded) and animals were evenly distributed to various treatment and control groups. Treatment of each animal was based on individual body weight. Treated animals were checked daily for treatment related toxicity/mortality. Each group of animals was weighed before the initiation of treatment (Wt1) and then again following the last treatment dose (Wt2). The difference in body weight (Wt2−Wt1) provides a measure of treatment-related toxicity. Tumor response was determined by measurement of tumors with a caliper twice a week, until the tumors reach a predetermined “target” size of 1 gm. Tumor weights (mg) were estimated from the formula: Tumor weight=(length×width2)÷2 Antitumor activity was evaluated at the maximum tolerated dose (MTD) which is defined as the dose level immediately below which excessive toxicity (i.e. more than one death) occurred. […] When death occurs, the day of death was recorded.

[2] = system: Src family kinases (SFKs, including: Fyn, Yes, Yrk, Blk, Fgr, Hck, Lyn, and Frk subfamily members Frk/Rak and Iyk/Bsk); test: Inhibition of Src family kinases (statement, no method); format: biochemical; conditions: competes with ATP for the ATP-binding site in the kinase domain

Cc1nc(Nc2ncc(C(=O)Nc3c(C)cccc3Cl)s2)cc(N2CCN(CCO)CC2)n1 [Compound 1, ′N-(2-Chloro-6-methylphenyl)-2-[[6-[4-(2-hydroxyethyl)-1-piperazinyl]-2-methyl-4-pyrimidinyl]amino]-5-thiazolecarboxamide]
growth delay (T-C) [1]: 4.5 days
tumor growth inhibition (% T/C) [1]: 58%
inhibition of Src family kinases [2]: potently inhibits
